Experiments:
[1] = Complex stability by capillary electrophoresis (decrease of initial complex over time); assay type: physicochemical; conditions: MeOH/water (50/50, v/v), 1 mM, 37 °C, CE
Procedure: The analysis was performed as previously described. A 50 mM sodium tetraborate solution (pH = 9.3, adjusted with 1 M NaOH), served as background electrolyte (BGE). Washing of novel capillaries consecutively with 1 M NaOH (45 min), water (45 min), and BGE (45 min) was performed. The hydrodynamic injection mode was utilized to introduce the samples into the capillary (50 mbar for 2 s). The capillary was kept at 25 °C, and the autosampler was thermostatted at 37 °C with an external water bath. For separation, the voltage was set to 20 kV, and the detection was carried out at the wavelength of 230 nm. Before each measurement, flushing of the capillary with 0.1 M NaOH (3 min), water (3 min), and BGE (5 min) took place. The samples were dissolved in methanol (MeOH) and further diluted in equal parts by volume with water to give a final concentration of 1 mM. Triple determinations were performed, and the half-lives (τ½) are presented as mean ± SD of ≥3 independent experiments. Samples, washing solutions, and buffers were filtered through a membrane with 0.22 µm porosity and degassed by ultrasonication before use. To simplify the reaction dynamics from a possible second-order to pseudo-first-order, one of two reactants must be present in great excess (>10 to 25-fold). If this condition is fulfilled, logarithmic plotting of the gradual decrease in the other reactant’s concentration (or increase in the concentration of a product, respectively) against the time yields a straight line, and half-lives can be calculated.
An already-established method was used to study the stability of the X-ASA-Prop-PtCl3 and X-ASA-But-PtCl3 complexes. The degradation products were separated by capillary electrophoresis using a fused-silica capillary ([…] × 75 µm, effective length: 56 cm, capillary temperature: 25 °C) and a 50 mM tetraborate buffer (pH = 9.3) as BGE. For separation, the voltage was set to 20 kV and the compounds were detected at 230 nm. Benzoic acid was used as an internal standard. Exemplary electropherograms of each complex can be found in the Supplementary Material (Figures S1–S24).
The complexes (1 mM) were dissolved in MeOH or MeOH/water (50/50, v/v) and stored at 37 °C. The decrease in the initial amount of complex was monitored time-dependently by CE, and the half-life (τ½) was calculated (Table 2).

COX-1 [2] = biological target: T1, COX-1 (Ovis aries, UniProt P05979); test: COX Inhibitor Screening Assay (EIA) on isolated COX-1 isoenzyme; assay type: biochemical, ovine; conditions: for Inhibition of COX-1: incubation 10 min
T1 construct: purchased Cayman Chemicals
T1 sequence (P05979 25-600): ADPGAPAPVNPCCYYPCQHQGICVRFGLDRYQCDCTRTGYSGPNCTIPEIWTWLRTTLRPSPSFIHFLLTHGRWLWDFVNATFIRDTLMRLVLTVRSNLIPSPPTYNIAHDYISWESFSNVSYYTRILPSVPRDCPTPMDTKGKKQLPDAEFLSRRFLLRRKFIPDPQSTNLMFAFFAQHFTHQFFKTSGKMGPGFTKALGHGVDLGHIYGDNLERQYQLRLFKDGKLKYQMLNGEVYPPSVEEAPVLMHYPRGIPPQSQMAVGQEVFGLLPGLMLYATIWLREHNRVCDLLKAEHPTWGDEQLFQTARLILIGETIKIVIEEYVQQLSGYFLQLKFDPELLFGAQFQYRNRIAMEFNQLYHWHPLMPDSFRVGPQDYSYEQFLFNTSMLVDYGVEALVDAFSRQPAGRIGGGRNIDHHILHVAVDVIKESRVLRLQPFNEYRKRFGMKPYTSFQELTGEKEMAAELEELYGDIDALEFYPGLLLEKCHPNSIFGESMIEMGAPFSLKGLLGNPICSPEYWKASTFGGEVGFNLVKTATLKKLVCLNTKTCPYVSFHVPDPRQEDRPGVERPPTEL
Procedure: (§1) The incubation of the respective complexes with the isoenzymes was exactly 10 min. The values of COX inhibition were calculated as the mean of duplicates and shown as the mean ± SD of ≥2 independent experiments.

COX-2 [3] = biological target: T2, COX-2 (Homo sapiens, UniProt P35354); test: COX Inhibitor Screening Assay (EIA) on isolated COX-2 isoenzyme; assay type: biochemical; conditions: incubation 10 min
T2 construct: purchased Cayman Chemicals
T2 sequence (P35354 18-604): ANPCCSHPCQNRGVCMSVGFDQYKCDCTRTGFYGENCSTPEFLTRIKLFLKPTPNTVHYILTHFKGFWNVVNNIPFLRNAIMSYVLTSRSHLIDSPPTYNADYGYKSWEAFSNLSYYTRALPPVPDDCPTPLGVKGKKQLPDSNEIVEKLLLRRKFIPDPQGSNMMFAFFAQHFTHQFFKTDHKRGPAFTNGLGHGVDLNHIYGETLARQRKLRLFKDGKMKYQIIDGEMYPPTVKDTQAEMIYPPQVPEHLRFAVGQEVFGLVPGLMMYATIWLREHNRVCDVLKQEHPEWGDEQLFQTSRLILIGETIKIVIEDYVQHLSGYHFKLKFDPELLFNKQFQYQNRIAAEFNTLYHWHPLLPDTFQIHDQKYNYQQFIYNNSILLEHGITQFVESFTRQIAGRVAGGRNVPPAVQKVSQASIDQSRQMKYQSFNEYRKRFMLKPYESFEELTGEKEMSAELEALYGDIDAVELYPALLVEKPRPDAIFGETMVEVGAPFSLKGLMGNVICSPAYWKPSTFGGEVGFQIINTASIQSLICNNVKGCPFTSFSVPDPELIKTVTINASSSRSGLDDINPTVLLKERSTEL
Procedure: as §1

HT-29 cells [4] = test: Crystal violet assay, antiproliferative effects in HT-29 cells; assay type: cell-based; conditions: HT-29 (COX-1/2-positive), 72 h
Procedure: (§2) In order to investigate the cytotoxic effects in MCF-7 and HT-29 cells, an already published crystal violet assay was used. The cells (HT-29: 3 × 10^3 cells per well in 100 µL of medium; MCF-7: 2 × 10^3 cells per well in 100 µL of medium) were seeded in their exponential growth phase in completed DMEM into 96-well microtiter plates in quadruples. […] Cells were then fixed with a solution of 1% (v/v) glutaric dialdehyde in PBS. In order to determine the cell biomass, the chromatin of the attached cells was stained with crystal violet, and the bound dye was extracted with EtOH (70%). The absorbance was measured at 590 nm. Mean values ± SD of ≥2 independent experiments were calculated, and the activity of the complexes was expressed as the cell mass of the vehicle-treated control, which was set to 100%.
(§3) The compounds were investigated regarding their cytotoxicity (in vitro) employing an already published crystal violet assay. It is based on the quantification of the cell biomass of living cells by staining the chromatin. In order to evaluate the possible influence of COX inhibition on cell growth, Zeise’s salt derivatives were investigated comparatively in HT-29 and MCF-7 cell lines.

MCF-7 cells [5] = test: Crystal violet assay, antiproliferative effects in MCF-7 cells; assay type: cell-based; conditions: MCF-7 (COX-negative), 72 h
Procedure: as §2, §3

[6] = tested on: PGE2 synthesis in HT-29 cells; test: Inhibition of the PGE2 synthesis in HT-29 cells (PGE2 EIA); assay type: cell-based; conditions: 24 h at 37 °C, then 50 µM arachidonic acid 1 h; for Inhibition of PGE2 synthesis: 10 µM
Procedure: Exponentially growing HT-29 cells were seeded into 24-well plates at a concentration of 5 × 10^4 cells in 500 µL of cell culture medium per well. […] In the next step, the substrate arachidonic acid (Sigma Aldrich, St. Louis, MO, USA) at a concentration of 50 µM was added. After 1 h, the COX-catalyzed PGE2 production was stopped by removing the supernatant from the cells, which was analyzed by EIA (Prostaglandin E2 Kit—Monoclonal, Cayman Chemicals, Ann Arbor, MI, USA) according to the manufacturer’s protocol.
HT-29 cells express both isoenzymes at high levels, allowing COX-1/2 interaction to be studied using an antibody-based PGE2 assay, which quantifies the PGE2 released by the cells into the cell culture medium. All Zeise’s salt derivatives were tested at a concentration of 10 µM (Figure 4).

HT-29 cells [7] = tested on: HT-29 cells; set-up: method as in PMID 29848978; conditions: COX-1/2-positive HT-29 colon carcinoma cells; cited from earlier work
MCF-7 cells [8] = tested on: MCF-7 cells; set-up: method as in PMID 29848978; conditions: COX-negative MCF-7 breast cancer cells; cited from earlier work
COX-1 [9] = biological target: T1, COX-1; set-up: method as in PMID 29492489, PMID 31617517; conditions: isolated isoenzymes; cited from earlier work
COX-2 [10] = biological target: T2, COX-2; set-up: method as in PMID 29492489, PMID 31617517; conditions: isolated isoenzymes; cited from earlier work
[11] = set-up: method as in doi:10.1002/zaac.19603050315; conditions: forms elemental platinum in an internal redox reaction; cited from earlier work

| SMILES | Half-life (τ½) [1] [min] | Inhibition of COX-1 (COX-1 [2]; 1 µM) [%] | Inhibition of COX-2 (COX-2 [3]; 1 µM) [%] | IC50 (HT-29 cells [4]) [µM] | IC50 (MCF-7 cells [5]) [µM] | Inhibition of PGE2 synthesis [6] [%] | also measured |
| --- | --- | --- | --- | --- | --- | --- | --- |
| CC(=O)Oc1c(Cl)cccc1C(=O)OC[CH]1[CH2][Pt-]1([Cl])([Cl])[Cl].[K+] (stereo not shown) [3-Cl-ASA-Prop-PtCl3, Potassium trichlorido[η^2-(prop-2-en-1-yl)-2-acetoxy-3-chlorobenzoate]platinate(II)] | 31.4 ± 1.7 | 51.7 | 58.8 | 89.7 ± 25.7 | 56.3 ± 5.8 | – | – |
| CC(=O)Oc1cc(Cl)ccc1C(=O)OCC[CH]1[CH2][Pt-]1([Cl])([Cl])[Cl].[K+] (stereo not shown) [4-Cl-ASA-But-PtCl3, Potassium trichlorido[η^2-(but-3-en-1-yl)-2-acetoxy-4-chlorobenzoate]platinate(II)] | 2370 ± 144 | 47.9 | 40.0 | 35.2 ± 9.3 | 31.7 ± 8.7 | – | – |
| CC(=O)Oc1ccc(C)cc1C(=O)OC[CH]1[CH2][Pt-]1([Cl])([Cl])[Cl].[K+] (stereo not shown) [5-CH3-ASA-Prop-PtCl3, Potassium trichlorido[η^2-(prop-2-en-1-yl)-2-acetoxy-5-methylbenzoate]platinate(II)] | 36.7 ± 1.1 | – | – | 21.9 ± 4.6 | 70.2 ± 2.8 | 82.4 | – |
| CC(=O)Oc1cc(C)ccc1C(=O)OC[CH]1[CH2][Pt-]1([Cl])([Cl])[Cl].[K+] (stereo not shown) [4-CH3-ASA-Prop-PtCl3, Potassium trichlorido[η^2-(prop-2-en-1-yl)-2-acetoxy-4-methylbenzoate]platinate(II)] | 40.4 ± 1.1 | – | – | 24.2 ± 2.4 | 62.9 ± 1.6 | 88.4 | – |
| CC(=O)Oc1ccccc1C(=O)OC[CH]1[CH2][Pt-]1([Cl])([Cl])[Cl].[K+] (stereo not shown) [ASA-Prop-PtCl3] | 35.7 | – | – | – | – | – | Growth inhibition in HT-29 cells (HT-29 cells [7]): low growth inhibitory potential; Growth inhibition in MCF-7 cells (MCF-7 cells [8]): nearly inactive |
| CC(=O)Oc1ccccc1C(=O)OCC[CH]1[CH2][Pt-]1([Cl])([Cl])[Cl].[K+] (stereo not shown) [ASA-But-PtCl3] | 4180 | – | – | – | – | – | Growth inhibition in HT-29 cells (HT-29 cells [7]): low growth inhibitory potential; Growth inhibition in MCF-7 cells (MCF-7 cells [8]): nearly inactive |
| CC(=O)Oc1ccccc1C(=O)O [ASA, Acetylsalicylic acid] | – | – | – | – | – | – | inhibition at 10 µM ([6]; Homo sapiens): 17.9%; Concentration causing significant effects on COX-1 (COX-1 [9]): higher than 100 µM; Concentration causing significant effects on COX-2 (COX-2 [10]): higher than 100 µM |
| C=C.O.[Cl][Pt-]([Cl])[Cl].[K+] [Zeise’s salt] | – | 37.3 | 1.5 | – | – | 24.5 | Inhibition of COX-1 (COX-1 [2]; 10 µM): 94.4%; Inhibition of COX-2 (COX-2 [3]; 10 µM): 8.3%; Stability in aqueous environment [11]: not stable |
| CC(=O)Oc1ccc(C)cc1C(=O)OCC[CH]1[CH2][Pt-]1([Cl])([Cl])[Cl].[K+] (stereo not shown) [5-CH3-ASA-But-PtCl3, Potassium trichlorido[η^2-(but-3-en-1-yl)-2-acetoxy-5-methylbenzoate]platinate(II)] | 3140 ± 258 | 60.4 | 45.0 | 16.2 ± 2.5 | 32.5 ± 4.4 | – | – |
| CC(=O)Oc1ccc(Cl)cc1C(=O)OC[CH]1[CH2][Pt-]1([Cl])([Cl])[Cl].[K+] (stereo not shown) [5-Cl-ASA-Prop-PtCl3, Potassium trichlorido[η^2-(prop-2-en-1-yl)-2-acetoxy-5-chlorobenzoate]platinate(II)] | 35.2 ± 0.9 | – | – | 53.4 ± 0.7 | 52.8 ± 9.2 | 84.0 | COX-1 selectivity (COX-1 [2]; from inhibition at 1 µM, COX-1 over COX-2): 1.7 fold |

From publication PMC10304174, “Development of Zeise’s Salt Derivatives Bearing Substituted Acetylsalicylic Acid Substructures as Cytotoxic COX Inhibitors” (Pharmaceutics, 2023)
